Test results: paper PMC2939063, “In Vitro and In Vivo Studies of the Trypanocidal Properties of WRR-483 against Trypanosoma cruzi” (PLoS Neglected Tropical Diseases, 2010)
Entries after “also recorded” stand apart in the source; their conditions may differ.

What was measured:
[1] = test system: T. cruzi infection in BESM cells; design: method as in PMID 20547819; conditions: read-out: EC50 against T. cruzi infection in BESM cells; cited from earlier work
Papain = target: T1, Papain (Carica papaya, UniProt P00784); test: Protease inhibition profiling (Reaction Biology Corp): Papain; format: biochemical
T1 construct: Reaction Biology Corp (screening service)
T1 sequence (P00784 134-345): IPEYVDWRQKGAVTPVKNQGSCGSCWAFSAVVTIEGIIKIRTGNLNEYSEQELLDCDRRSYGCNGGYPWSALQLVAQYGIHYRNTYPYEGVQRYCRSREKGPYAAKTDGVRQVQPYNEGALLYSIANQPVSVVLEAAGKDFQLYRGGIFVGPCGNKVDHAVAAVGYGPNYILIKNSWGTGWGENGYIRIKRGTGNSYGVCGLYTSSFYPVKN

Cathepsin S = target: T2, Cathepsin S (Homo sapiens, UniProt P25774); test: Protease inhibition profiling (Reaction Biology Corp): Cathepsin S; format: biochemical
T2 construct: Reaction Biology Corp (screening service)

Cathepsin V = target: T3, Cathepsin V (Homo sapiens, UniProt O60911); test: Protease inhibition profiling (Reaction Biology Corp): Cathepsin V; format: biochemical
T3 construct: Reaction Biology Corp (screening service)

Cathepsin K = target: T4, Cathepsin K (Homo sapiens, UniProt P43235); test: Protease inhibition profiling (Reaction Biology Corp): Cathepsin K; format: biochemical
T4 construct: Reaction Biology Corp (screening service)
T4 sequence (P43235 115-329): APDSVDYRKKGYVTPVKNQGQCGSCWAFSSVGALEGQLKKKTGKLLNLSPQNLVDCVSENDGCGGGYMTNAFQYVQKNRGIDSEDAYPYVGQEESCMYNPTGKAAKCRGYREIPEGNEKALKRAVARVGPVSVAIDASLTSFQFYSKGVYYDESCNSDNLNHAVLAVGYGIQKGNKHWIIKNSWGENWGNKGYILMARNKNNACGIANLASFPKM

[2] = test system: T. cruzi CA-I/72 infected C3H mice; test: Murine model of acute Chagas' disease; format: in vivo, mouse; design: key to Histopathology, Heart / Histopathology, Liver / Histopathology, Spleen / Histopathology, Colon: I/I: Inflammation and infiltration; +10A: Numerous nests of T. cruzi amastigotes; +A: 1-3 nests of T. cruzi amastigotes; Negative
Description: Three to four week old female C3H mice weighing ca. 20 g were used. The animals were separated into five lots of 5 mice per cage and infected with 10^6 tissue-culture derived trypomastigotes of the myotropic T. cruzi CA-I/72 cloned stock. The mice were treated with 100 mg compound/kg of body weight in 100 µL of solution (30–40% DMSO: 60–70% sterile distilled water) intraperitoneally twice a day. Treatment was initiated 12 h post infection and continued until cure, death of the animals, or for a total of 20 days. […] Parasitemias was determined at the end of the experiment when animals were euthanized. Tissues processed for histopathology include skeletal muscle, heart, liver, spleen, and colon. Blood (5–50 µL) was used for hemocultures. […] Compounds were considered toxic if life expectancy is lower than untreated controls (negative values). If necessary, PCR of blood and tissues was performed to confirm effectiveness of treatment and/or cure of treated animals. Results were expressed as survival (days) of treated animals.

[3] = test system: T. cruzi infected J774 macrophages; test: T. cruzi growth inhibition in infected J774 macrophages (cell survival); format: cell-based, Trypanosoma cruzi CA-I/72; conditions: 10 µM inhibitor every 48 h until Day 27, experiment terminated on Day 47, untreated control 6 days
Description: CA-I/72 T. cruzi parasites were isolated from a chronic Chagasic patient, cloned, and maintained as previously described.[33]
For growth inhibition studies, J774 macrophages cultured in RPMI-1640 medium with 5% heat inactivated fetal calf serum (FCS) were irradiated (9000 rad) to arrest the cell cycle and plated onto 12-well tissue culture plates for 24 h at 37°C. After infection with 10^5 T. cruzi trypomastigotes per well for 2 hours, monolayers were washed with RPMI medium and treated with the inhibitors at 10 µM in RPMI medium (triplicate wells per inhibitor). Inhibitor stocks were made to 10 mM in DMSO and diluted prior to use. All assays include untreated, K11777-treated, and uninfected macrophage controls. Fresh medium with or without inhibitor was replaced every 48 h and inhibitor efficacy was monitored daily. Survival time was defined as the time before the cell monolayer was destroyed by the infection. Under these culture conditions, T. cruzi completed the intracellular cycle in 6 days in untreated controls. […] Macrophages were subsequently cultured in normal medium for up to 40 days to elucidate if the effective inhibitors were trypanocidal (cure host macrophages) or trypanostatic (delay intracellular cycle of the parasite).

Rhodesain = target: T5, Rhodesain (Trypanosoma brucei rhodesiense, UniProt Q95PM0); test: Rhodesain enzyme assay (acetate buffer pH 5.5, Z-Phe-Arg-AMC); format: biochemical, T. brucei; conditions: 100 mM sodium acetate pH 5.5, 5 mM DTT
T5 construct: made in house
Description: (§1) Cruzain[27],[28], rhodesain [29], and tbcatB [30] were recombinantly expressed as described previously. TbcatB assays were performed as described previously.[31] Cruzain (2 nM) or rhodesain (3 nM) was incubated with 0.5 to 10 µM inhibitor concentration in 100 mM sodium acetate at pH 5.5, containing 5 mM DTT (buffer A) for 5 min at room temperature. Then buffer A containing Z-Phe-Arg-AMC (Bachem, K M = 1 µM) was added to enzyme inhibitor to give 20 µM substrate concentration in 200 µL, and the increase in fluorescence (excitation at 355 nm and emission at 460 nm) was followed with an automated microtiter plate spectrofluorometer (Molecular Devices, Flex station). Inhibitor stock solutions were prepared at 20 mM in DMSO, and serial dilutions were made in DMSO (0.7% DMSO in assay). Controls were performed using enzyme alone and enzyme with DMSO. IC50 values were determined graphically using inhibitor concentrations in the linear portion of a plot of inhibition versus log[I] (seven concentrations tested with at least two in the linear range).
(§2) Inhibitor dilutions which produce simple exponential progress curves over a wide range of k obs, were used to determine kinetic parameters. The value of k obs, the rate constant for loss of enzyme activity, was determined from an equation for pseudo first order dynamics using Prism 4.0 (GraphPad). When k obs varied linearly with inhibitor concentration, k ass was determined by linear regression analysis. If the variation was hyperbolic, indicating saturation inhibition kinetics, k inact and K i were determined from an equation describing a two-step irreversible inhibitor mechanism [k obs = k inact [I]o/([I]o+Ki* (1+[S]o/K M))] and non-linear regression analysis Prism 4.0.[32] All values were corrected for substrate concentration.

tbcatB = target: T6, tbcatB (Trypanosoma brucei, UniProt Q6R7Z5); test: tbcatB enzyme assay; format: biochemical
T6 construct: made in house
T6 sequence (Q6R7Z5 23-340): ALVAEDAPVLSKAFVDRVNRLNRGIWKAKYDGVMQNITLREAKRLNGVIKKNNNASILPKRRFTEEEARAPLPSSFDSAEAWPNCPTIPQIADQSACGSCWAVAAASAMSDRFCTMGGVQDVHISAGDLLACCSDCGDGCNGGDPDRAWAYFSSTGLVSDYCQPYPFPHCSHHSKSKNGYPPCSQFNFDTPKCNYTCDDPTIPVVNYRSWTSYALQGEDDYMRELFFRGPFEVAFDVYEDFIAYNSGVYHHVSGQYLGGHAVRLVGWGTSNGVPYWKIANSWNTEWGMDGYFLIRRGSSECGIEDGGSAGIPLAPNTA
Description: as §1, §2

Cruzain = target: T7, Cruzain (Trypanosoma cruzi, UniProt P25779); test: Cruzain enzyme assay (acetate buffer pH 5.5, Z-Phe-Arg-AMC); format: biochemical; conditions: 100 mM sodium acetate pH 5.5, 5 mM DTT
T7 construct: made in house
Description: as §1, with “(seven concentrations tested with at least two in the linear range).” left out
Inhibitor dilutions which produce simple exponential progress curves over a wide range of k obs, were used to determine kinetic parameters. The value of k obs, the rate constant for loss of enzyme activity, was determined from an equation for pseudo first order dynamics using Prism 4.0 (GraphPad). When k obs varied linearly with inhibitor concentration, k ass was determined by linear regression analysis. […]

Cathepsin C = target: T8, Cathepsin C (Homo sapiens, UniProt P53634); test: Protease inhibition profiling (Reaction Biology Corp): Cathepsin C; format: biochemical
T8 construct: Reaction Biology Corp (screening service)

[4] = individual infected mice, 100 mg/kg ip
[5] = individual infected mice, 100 mg/kg ip, 100 mg/kg

T8 sequence (P53634 25-463, species assumed): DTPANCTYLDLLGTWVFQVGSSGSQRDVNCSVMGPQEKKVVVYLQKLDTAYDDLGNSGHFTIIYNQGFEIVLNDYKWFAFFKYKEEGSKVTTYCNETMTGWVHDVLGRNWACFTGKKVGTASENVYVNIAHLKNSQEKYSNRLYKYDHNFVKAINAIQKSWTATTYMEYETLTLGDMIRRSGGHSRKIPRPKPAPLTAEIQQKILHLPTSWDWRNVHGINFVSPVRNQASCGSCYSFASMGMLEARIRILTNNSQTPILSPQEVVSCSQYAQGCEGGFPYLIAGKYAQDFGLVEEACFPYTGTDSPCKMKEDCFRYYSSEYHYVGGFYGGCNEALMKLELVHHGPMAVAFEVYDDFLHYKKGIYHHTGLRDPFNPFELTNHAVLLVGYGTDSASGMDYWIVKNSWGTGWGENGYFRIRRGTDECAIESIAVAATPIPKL
T2 sequence (P25774 115-331, species assumed): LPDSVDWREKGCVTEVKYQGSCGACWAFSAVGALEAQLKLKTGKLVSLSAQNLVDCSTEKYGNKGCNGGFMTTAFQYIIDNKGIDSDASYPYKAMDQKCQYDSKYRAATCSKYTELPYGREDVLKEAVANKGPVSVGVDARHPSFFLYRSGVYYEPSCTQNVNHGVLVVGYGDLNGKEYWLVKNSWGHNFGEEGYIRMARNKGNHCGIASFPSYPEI
T3 sequence (O60911 114-334, species assumed): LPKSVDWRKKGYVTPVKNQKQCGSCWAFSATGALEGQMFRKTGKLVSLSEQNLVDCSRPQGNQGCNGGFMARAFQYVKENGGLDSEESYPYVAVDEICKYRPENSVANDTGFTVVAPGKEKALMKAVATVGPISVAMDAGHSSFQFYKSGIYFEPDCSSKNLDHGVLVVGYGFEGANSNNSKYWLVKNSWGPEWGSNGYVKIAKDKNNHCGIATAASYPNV
T5 sequence (Q95PM0 entry or part of it): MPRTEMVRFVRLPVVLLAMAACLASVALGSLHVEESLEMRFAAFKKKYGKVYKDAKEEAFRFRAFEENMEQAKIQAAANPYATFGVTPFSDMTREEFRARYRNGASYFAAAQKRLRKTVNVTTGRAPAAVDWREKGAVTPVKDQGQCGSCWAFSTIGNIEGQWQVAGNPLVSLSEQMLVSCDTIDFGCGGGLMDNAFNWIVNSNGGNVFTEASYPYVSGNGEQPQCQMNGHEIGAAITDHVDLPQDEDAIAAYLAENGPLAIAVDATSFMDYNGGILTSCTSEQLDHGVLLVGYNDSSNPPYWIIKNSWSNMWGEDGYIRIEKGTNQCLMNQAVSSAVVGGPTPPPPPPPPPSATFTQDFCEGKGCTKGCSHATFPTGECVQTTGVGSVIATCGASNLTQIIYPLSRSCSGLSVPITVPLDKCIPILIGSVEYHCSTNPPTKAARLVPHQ
T7 sequence (P25779 123-337 limits assumed): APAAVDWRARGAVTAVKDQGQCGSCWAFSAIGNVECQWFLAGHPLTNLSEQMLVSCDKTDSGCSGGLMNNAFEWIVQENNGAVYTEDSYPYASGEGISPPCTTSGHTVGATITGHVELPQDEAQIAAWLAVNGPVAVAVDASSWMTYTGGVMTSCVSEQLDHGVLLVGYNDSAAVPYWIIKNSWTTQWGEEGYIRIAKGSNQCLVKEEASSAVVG

SMILES: CC[C@@H]([C@H](C)O)n1ncn(-c2ccc(N3CCN(c4ccc(OC[C@@H]5CO[C@@](Cn6cncn6)(c6ccc(F)cc6F)C5)cc4)CC3)cc2)c1=O [posaconazole]
- EC50 [1]: 200 nM

SMILES: CN1CCN(C(=O)N[C@@H](Cc2ccccc2)C(=O)N[C@H](/C=C/S(=O)(=O)c2ccccc2)CCc2ccccc2)CC1 [K11777]
- IC50 (Papain): 0.4 nM
- IC50 (Cathepsin S): 0.6 nM
- EC50 [1]: 4200 nM
- IC50 (Cathepsin V): 1.2 nM
- IC50 (Cathepsin K): 25 nM
- T. cruzi infected mouse survival ([2]; 100 mg inhibitor/kg body weight in two daily doses, intraperitoneally, untreated control 21 days): 110 days
- survival of the acute infection ([2]; 10^6 trypomastigotes CA-I/72, untreated controls died within 21–60 days): survived the acute infection
- Histopathology, Colon [2, 4]: N
- Histopathology, Liver [2, 4]: N
- Histopathology, Spleen [2, 4]: N
- Histopathology, Heart [2, 5]: Mild i/i and N
- Histopathology, Sk. muscle [2, 5]: +AIntense i/i; also recorded: Moderate i/i; also recorded: +AModerate i/i; also recorded: Intense i/i
- T. cruzi infected cell survival [3]: 47 days
- k obs/[I] at 1 µM, Rhodesain (Rhodesain): 48,000±10,200 s^-1 M^-1
- inhibition of tbcatB (in words) (tbcatB): weak inhibitors
- tbcatB k ass (tbcatB): 500 ± 100 M⁻¹ s⁻¹
- inhibition at 1 µM (tbcatB; read-out: tbcatB % inhibition at 1 µM): 48%
- k obs/[I] at 1 µM, Cruzain (Cruzain): 108,000±4,200 s^-1 M^-1
- IC50 (Cathepsin C): 0.4 nM
